PubChem BioAssay (NCI)
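Dose response: 5 concentrations. Exposure: 48 h. Format: 96-well plates. Endpoint: linear interpolation; highest concentration if not reached. Abbreviation: GI50, concentration required for 50% inhibition of growth. TGI marks complete inhibition of growth.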

Experiments:
Assay in all cases: growth of human tumour cells (NCI), 48 h
MDA-N = test system: MDA-N
LOX IMVI melanoma = test system: LOX IMVI melanoma
786-0 renal = test system: 786-0 renal
SK-MEL-28 melanoma = test system: SK-MEL-28 melanoma
CCRF-CEM leukemia = test system: CCRF-CEM leukemia
TK-10 renal = test system: TK-10 renal
A498 renal = test system: A498 renal
OVCAR-4 ovarian = test system: OVCAR-4 ovarian
RXF 393 renal = test system: RXF 393 renal
HT29 colon = test system: HT29 colon
NCI-H460 lung = test system: NCI-H460 lung

SMILES | TGI (MDA-N) | TGI (LOX IMVI melanoma) | TGI (786-0 renal) | TGI (SK-MEL-28 melanoma) | TGI (CCRF-CEM leukemia) | TGI (TK-10 renal) | TGI (A498 renal) | TGI (OVCAR-4 ovarian) | TGI (RXF 393 renal) | TGI (HT29 colon) | TGI (NCI-H460 lung) | GI50 (OVCAR-4 ovarian) | GI50 (NCI-H460 lung) | GI50 (LOX IMVI melanoma) | GI50 (RXF 393 renal) | GI50 (SK-MEL-28 melanoma) | GI50 (CCRF-CEM leukemia) | GI50 (A498 renal) | GI50 (HT29 colon) | GI50 (TK-10 renal)
C[C@H](c1ccccc1)N1C(=O)[C@@H](OCc2ccccc2)[C@H]1[C@H](COC(=O)COCc1ccccc1)OCc1ccccc1 | > 100 µM | > 100 µM | > 100 µM | > 100 µM | > 100 µM | > 100 µM | > 100 µM | – | – | – | – | – | – | – | – | – | – | – | – | –
Cc1cnc2[nH]c(-c3cccc(F)c3)cc(=O)c2c1 | 0.027 µM | > 100 µM | > 83.6 µM | > 100 µM | – | – | – | > 100 µM | > 100 µM | 0.806 µM | – | – | – | – | – | – | – | – | – | –
N#Cc1nc(CCCN2C(=O)c3ccccc3C2=O)oc1N | > 100 µM | > 100 µM | > 100 µM | > 100 µM | > 100 µM | > 100 µM | – | > 100 µM | > 100 µM | > 100 µM | > 100 µM | – | – | – | – | – | – | – | – | –
COc1cc2c3cc1Oc1c(OC)c(OC)cc4c1C(Cc1ccc(O)c(c1)Oc1ccc(cc1)CC3N(C)CC2)CN(C)C4 (stereo unspecified) | 24.5 µM | – | 22.9 µM | 31.9 µM | 15.6 µM | 32.2 µM | 31.2 µM | 39.1 µM | 23.4 µM | 13.7 µM | 33.7 µM | – | – | – | – | – | – | – | – | –
O=C1/C(=C/c2ccncc2)C(n2cccc2)c2c(Br)sc(Br)c21 (stereo unspecified) | 8.36 µM | 4.54 µM | 11.5 µM | 8.73 µM | 4.99 µM | 14.6 µM | 39 µM | – | 3.96 µM | 23.5 µM | 18.1 µM | – | – | – | – | – | – | – | – | –
O=C(O)C1=NN(c2ccc(S(=O)(=O)O)cc2)C2(C1)C(Cl)C(=O)N2c1nc2ccccc2s1 (stereo unspecified) | 53.1 µM | 12.7 µM | 32 µM | 46.3 µM | – | 33.2 µM | 36.7 µM | 35.3 µM | 34.8 µM | 34.9 µM | 33.2 µM | – | – | – | – | – | – | – | – | –
CC1CCc2sc3nc4n(c(=O)c3c2C1)CC(C)S4 (stereo unspecified) | 92.8 µM | 39.8 µM | 65.6 µM | 83.1 µM | – | 98.7 µM | – | > 100 µM | 55.2 µM | 33.4 µM | 65.2 µM | – | – | – | – | – | – | – | – | –
CN(C)CCNc1c([N+](=O)[O-])sc2ccc(Cl)cc12 | – | > 100 µM | 49.1 µM | > 100 µM | > 100 µM | > 100 µM | > 100 µM | > 100 µM | 82.8 µM | > 100 µM | > 100 µM | – | – | – | – | – | – | – | – | –
O=C1CS/C(=N/N=C/c2cn(Cc3ccc(Cl)cc3Cl)c3ccccc23)N1 | – | > 100 µM | 53.2 µM | > 100 µM | 56.4 µM | > 100 µM | 46.5 µM | > 100 µM | 77.2 µM | > 100 µM | > 100 µM | – | – | – | – | – | – | – | – | –
c1c(N2CCOCC2)ssc1=[N+]1CCOCC1 | – | > 100 µM | > 100 µM | > 100 µM | > 100 µM | > 100 µM | > 100 µM | > 100 µM | > 100 µM | > 100 µM | > 100 µM | – | – | – | – | – | – | – | – | –
C[N+]1(CCN=C=NC2CCCCC2)CCOCC1 | – | > 100 µM | > 100 µM | > 100 µM | > 100 µM | > 100 µM | > 100 µM | > 100 µM | > 100 µM | > 100 µM | > 100 µM | – | – | – | – | – | – | – | – | –
COc1ccc2c(c1)-c1c(c3cc(OC)ccc3n1CCN(C)C)CC2 | 27.9 µM | – | 22.7 µM | 30.4 µM | 26.4 µM | 28.9 µM | 24.1 µM | 33.1 µM | 28.2 µM | 19.1 µM | 25.9 µM | – | – | – | – | – | – | – | – | –
Nc1c(S(N)(=O)=O)cc(S(N)(=O)=O)cc1S(N)(=O)=O | > 100 µM | > 100 µM | > 100 µM | > 100 µM | – | > 100 µM | > 100 µM | > 100 µM | > 100 µM | > 100 µM | > 100 µM | – | – | – | – | – | – | – | – | –
CC(=O)N(C)c1ccc(Nc2ccnc3ccc4nn(C)nc4c23)cc1 | > 100 µM | 30.6 µM | > 100 µM | 73.1 µM | 42 µM | 70.2 µM | – | > 100 µM | 48.1 µM | > 100 µM | – | – | – | – | – | – | – | – | – | –
CCN(CCCCCCCCCCN1CC(=O)N(CCCCCCCCCCN(CC)Cc2ccccc2OC)CC1=O)Cc1ccccc1OC | – | 1.93 µM | – | 3.22 µM | 10.1 µM | – | 2.94 µM | 6.59 µM | 1.93 µM | – | 3.62 µM | 1.77 µM | 1.54 µM | 0.587 µM | 0.646 µM | 1.75 µM | 2.11 µM | 1090 nM | – | –
O=c1[nH]c(=O)n(C2CC(O)C(CO)O2)cc1OC/C=C/Cc1ccccc1 (stereo unspecified) | – | > 100 µM | > 100 µM | > 100 µM | > 100 µM | > 100 µM | – | > 100 µM | > 100 µM | > 100 µM | > 100 µM | – | – | – | – | – | – | – | – | –
CCOC(=O)Cn1nnc2cc(Nc3c(C)[n+]([O-])c4cc(F)c(OCC)cc4[n+]3[O-])ccc21 | – | > 100 µM | > 100 µM | > 100 µM | > 100 µM | 64.4 µM | > 100 µM | > 100 µM | > 100 µM | > 100 µM | > 100 µM | – | – | – | – | – | – | – | – | –
CC(C)(C)c1cc(/C=C2/NC(=O)NC2=O)cc(C(C)(C)C)c1O | – | 32.9 µM | 33.3 µM | 32 µM | 32.8 µM | 30.2 µM | 27 µM | 26 µM | 19.7 µM | 31.7 µM | 29.1 µM | – | – | – | – | – | – | – | – | –
NC(Cc1[nH]nc2ccccc12)C(=O)O (stereo unspecified) | – | > 100 µM | > 100 µM | > 100 µM | > 100 µM | > 100 µM | > 100 µM | > 100 µM | > 100 µM | > 100 µM | > 100 µM | – | – | – | – | – | – | – | – | –
O=C1/C(=C/c2ccc(Cl)cc2)CCCc2ccc(F)cc21 | – | 31.8 µM | – | 40.9 µM | 61 µM | 43.5 µM | – | 51.2 µM | 52 µM | > 100 µM | 54 µM | 17.5 µM | 20.1 µM | 14.4 µM | 24.2 µM | 14.7 µM | 11.5 µM | – | 24.2 µM | 15.7 µM
